Key:
[1] = system: blackgrass; assay: Test Example 4: herbicidal effect by soil treatment (Table 19, symbol J); type: in vivo, blackgrass (Alopecurus myosuroides); conditions: amount of applied herbicide 320 g/ha
Procedure, shortened: (§1)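 Soil-surface application: an emulsion agent diluted with water to the predetermined dose is sprayed uniformly over seeds lying under roughly 1.5 cm of sterilized diluvial soil. Boxes stay in a greenhouse at 25° C. to 30° C. Three weeks later, each species is graded on previously defined criteria.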

[2] = system: green foxtail; assay: Test Example 5: herbicidal effect by foliage application, plastic box (Table 20, symbol G); type: in vivo, green foxtail (Setaria viridis); conditions: foliage application, 320 g/ha, three weeks after application
Procedure, shortened: (§2)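 Sow seeds spot-wise in sterilized diluvial soil; cover with ~1.5 cm soil. Grow 14 days in greenhouse, 25° C. to 30° C. Spray foliage with emulsion diluted to predetermined amount. Rate effect after 3 weeks.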

[3] = system: blackgrass; assay: Test Example 5: herbicidal effect by foliage application, plastic box (Table 20, symbol J); type: in vivo, blackgrass (Alopecurus myosuroides); conditions: foliage application, 320 g/ha, three weeks after application
Procedure, shortened: as §2

[4] = system: green foxtail; assay: Test Example 4: herbicidal effect by soil treatment (Table 19, symbol G); type: in vivo, green foxtail (Setaria viridis); conditions: amount of applied herbicide 320 g/ha
Procedure, shortened: as §1

[5] = system: windgrass; assay: Test Example 4: herbicidal effect by soil treatment (Table 19, symbol L); type: in vivo, windgrass (Apera spica-venti); conditions: amount of applied herbicide 320 g/ha
Procedure, shortened: as §1

[6] = system: Italian ryegrass; assay: Test Example 5: herbicidal effect by foliage application, plastic box (Table 20, symbol K); type: in vivo, Italian ryegrass (Lolium multiflorum); conditions: foliage application, 320 g/ha, three weeks after application
Procedure, shortened: as §2

[7] = system: Italian ryegrass; assay: Test Example 4: herbicidal effect by soil treatment (Table 19, symbol K); type: in vivo, Italian ryegrass (Lolium multiflorum); conditions: amount of applied herbicide 320 g/ha
Procedure, shortened: as §1

[8] = system: chickweed; assay: Test Example 4: herbicidal effect by soil treatment (Table 19, symbol P); type: in vivo, common chickweed (Stellaria media); conditions: amount of applied herbicide 320 g/ha
Procedure, shortened: as §1

[9] = system: persian speedwell; assay: Test Example 4: herbicidal effect by soil treatment (Table 19, symbol R); type: in vivo, Persian speedwell (Veronica persica); conditions: amount of applied herbicide 320 g/ha
Procedure, shortened: as §1

[10] = system: southern crabgrass; assay: Test Example 4: herbicidal effect by soil treatment (Table 19, symbol F); type: in vivo, southern crabgrass (Digitaria ciliaris); conditions: amount of applied herbicide 320 g/ha
Procedure, shortened: as §1

[11] = system: barnyard grass; assay: Test Example 4: herbicidal effect by soil treatment (Table 19, symbol H); type: in vivo, barnyard grass (Echinochloa crus-galli); conditions: amount of applied herbicide 320 g/ha
Procedure, shortened: as §1

[12] = system: lambsquarters; assay: Test Example 5: herbicidal effect by foliage application, plastic box (Table 20, symbol O); type: in vivo, lambsquarters (Chenopodium album); conditions: foliage application, 320 g/ha, three weeks after application
Procedure, shortened: as §2

[13] = system: velvetleaf; assay: Test Example 4: herbicidal effect by soil treatment (Table 19, symbol M); type: in vivo, velvetleaf (Abutilon theophrasti); conditions: amount of applied herbicide 320 g/ha
Procedure, shortened: as §1

[14] = system: barnyard grass; assay: Test Example 3: herbicidal effect by foliage application, Wagner pot (Table 18, symbol H); type: in vivo, barnyard grass (Echinochloa crus-galli); conditions: 320 g/ha
Procedure, shortened: (§3)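 Plants were sown in alluvial soil held under 0.1–0.5 cm standing water and grown 14 days in a greenhouse at 25–30 °C. An emulsifiable formulation, water-diluted to the set dose, was then sprayed onto the foliage, and effects were scored three weeks later using previously defined criteria.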

[15] = system: windgrass; assay: Test Example 5: herbicidal effect by foliage application, plastic box (Table 20, symbol L); type: in vivo, windgrass (Apera spica-venti); conditions: foliage application, 320 g/ha, three weeks after application
Procedure, shortened: as §2

[16] = system: late watergrass; assay: Test Example 1: herbicidal activity, application before weed generation under submerged conditions (Table 16, symbol A); type: in vivo, late watergrass (Echinochloa oryzicola); conditions: amount of applied herbicide 320 g/ha
Procedure, shortened: (§4)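 Alluvial soil was flooded to 4 cm depth, weed seeds were sown mixed and 2.5-leaf rice seedlings were transplanted. On sowing day, the compound's emulsion, diluted in water to a set dose, was applied to the water surface. Plants grew at 25–30 °C and were scored 0–5 after three weeks.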

[17] = system: Japanese bulrush; assay: Test Example 1: herbicidal activity, application before weed generation under submerged conditions (Table 16, symbol B); type: in vivo, Japanese bulrush (Schoenoplectus juncoides); conditions: amount of applied herbicide 320 g/ha
Procedure, shortened: as §4

[18] = system: velvetleaf; assay: Test Example 5: herbicidal effect by foliage application, plastic box (Table 20, symbol M); type: in vivo, velvetleaf (Abutilon theophrasti); conditions: foliage application, 320 g/ha, three weeks after application
Procedure, shortened: as §2

[19] = system: wild oat; assay: Test Example 5: herbicidal effect by foliage application, plastic box (Table 20, symbol I); type: in vivo, wild oat (Avena fatua); conditions: foliage application, 320 g/ha, three weeks after application
Procedure, shortened: as §2

[20] = system: southern crabgrass; assay: Test Example 5: herbicidal effect by foliage application, plastic box (Table 20, symbol F); type: in vivo, southern crabgrass (Digitaria ciliaris); conditions: foliage application, 320 g/ha, three weeks after application
Procedure, shortened: as §2

[21] = system: persian speedwell; assay: Test Example 5: herbicidal effect by foliage application, plastic box (Table 20, symbol R); type: in vivo, Persian speedwell (Veronica persica); conditions: foliage application, 320 g/ha, three weeks after application
Procedure, shortened: as §2

[22] = system: wild oat; assay: Test Example 4: herbicidal effect by soil treatment (Table 19, symbol I); type: in vivo, wild oat (Avena fatua); conditions: amount of applied herbicide 320 g/ha
Procedure, shortened: as §1

[23] = system: rice flat sedge; assay: Test Example 3: herbicidal effect by foliage application, Wagner pot (Table 18, symbol E); type: in vivo, rice flat sedge (Cyperus iria); conditions: 320 g/ha
Procedure, shortened: as §3

[24] = system: oval-leafed pondweed; assay: Test Example 1: herbicidal activity, application before weed generation under submerged conditions (Table 16, symbol C); type: in vivo, oval-leafed pondweed (Monochoria vaginalis); conditions: amount of applied herbicide 320 g/ha
Procedure, shortened: as §4

[25] = system: barnyard grass; assay: Test Example 5: herbicidal effect by foliage application, plastic box (Table 20, symbol H); type: in vivo, barnyard grass (Echinochloa crus-galli); conditions: foliage application, 320 g/ha, three weeks after application
Procedure, shortened: as §2

[26] = system: Chinese sprangletop; assay: Test Example 3: herbicidal effect by foliage application, Wagner pot (Table 18, symbol D); type: in vivo, chinese sprangletop (Leptochloa chinensis); conditions: 320 g/ha
Procedure, shortened: as §3

[27] = system: lambsquarters; assay: Test Example 4: herbicidal effect by soil treatment (Table 19, symbol O); type: in vivo, lambsquarters (Chenopodium album); conditions: amount of applied herbicide 320 g/ha
Procedure, shortened: as §1

[28] = system: redroot pigweed; assay: Test Example 4: herbicidal effect by soil treatment (Table 19, symbol N); type: in vivo, redroot pigweed (Amaranthus retroflexus); conditions: amount of applied herbicide 320 g/ha
Procedure, shortened: as §1

What does the source list for CCCC(=O)Oc1c(C)nn(C)c(=O)c1-c1c(-c2ccc(F)cc2OC)sc2cc(Cl)c(Cl)cc12 [5-052]?
J: blackgrass, herbicidal effect grade [1]: 0 (Herbicidal rate of 5% or less (almost no effect)); herbicidal effect on green foxtail (G) [2]: 3 (Herbicidal rate of 40% or more and less than 70%); herbicidal effect on blackgrass (J) [3]: 4 (Herbicidal rate of 70% or more and less than 90%); G: green foxtail, herbicidal effect grade [4]: 0 (Herbicidal rate of 5% or less (almost no effect)); L: windgrass, herbicidal effect grade [5]: 0 (Herbicidal rate of 5% or less (almost no effect)); herbicidal effect on Italian ryegrass (K) [6]: 0 (Herbicidal rate of 5% or less (almost no effect)); K: Italian ryegrass, herbicidal effect grade [7]: 0 (Herbicidal rate of 5% or less (almost no effect)); P: chickweed, herbicidal effect grade [8]: 3 (Herbicidal rate of 40% or more and less than 70%); R: persian speedwell, herbicidal effect grade [9]: 0 (Herbicidal rate of 5% or less (almost no effect)); F: southern crabgrass, herbicidal effect grade [10]: 0 (Herbicidal rate of 5% or less (almost no effect)); H: barnyard grass, herbicidal effect grade [11]: 0 (Herbicidal rate of 5% or less (almost no effect)); herbicidal effect on lambsquarters (O) [12]: 5 (Herbicidal rate of 90% or more (almost completely withered)); M: velvetleaf, herbicidal effect grade [13]: 0 (Herbicidal rate of 5% or less (almost no effect)); herbicidal effect on barnyard grass (H) [14]: 5 (Herbicidal rate of 90% or more (almost completely withered)); herbicidal effect on windgrass (L) [15]: 4 (Herbicidal rate of 70% or more and less than 90%); Herbicidal effect, A: late watergrass [16]: 0 (Herbicidal rate of 5% or less (almost no effect)); Herbicidal effect, B: Japanese bulrush [17]: 3 (Herbicidal rate of 40% or more and less than 70%); herbicidal effect on velvetleaf (M) [18]: 4 (Herbicidal rate of 70% or more and less than 90%); herbicidal effect on wild oat (I) [19]: 0 (Herbicidal rate of 5% or less (almost no effect)); herbicidal effect on southern crabgrass (F) [20]: 0 (Herbicidal rate of 5% or less (almost no effect)); herbicidal effect on persian speedwell (R) [21]: 4 (Herbicidal rate of 70% or more and less than 90%); I: wild oat, herbicidal effect grade [22]: 0 (Herbicidal rate of 5% or less (almost no effect)); herbicidal effect on rice flat sedge (E) [23]: 5 (Herbicidal rate of 90% or more (almost completely withered)); Herbicidal effect, C: oval-leafed pondweed [24]: 0 (Herbicidal rate of 5% or less (almost no effect)); herbicidal effect on barnyard grass (H) [25]: 4 (Herbicidal rate of 70% or more and less than 90%); herbicidal effect on Chinese sprangletop (D) [26]: 3 (Herbicidal rate of 40% or more and less than 70%); O: lambsquarters, herbicidal effect grade [27]: 3 (Herbicidal rate of 40% or more and less than 70%); N: redroot pigweed, herbicidal effect grade [28]: 2 (Herbicidal rate of 20% or more and less than 40%)
